Data reported in patent US20250368629A1, “FLAVONOID COMPOUNDS AND METHODS AND MATERIALS FOR USING FLAVONOID COMPOUNDS TO TREAT FIBROTIC CONDITIONS” (Mayo Foundation for Medical Education and Research, priority 2022, published 2025).

Tests used:
STK17A = target: T1, STK17A (Homo sapiens, UniProt Q9UEE5); test: Kinase dose response curve on STK17A; format: biochemical; details: FIG. 4A, read-out: half maximal inhibitory concentration (IC50) on STK17A
T1 construct: purchased Reaction Biology
T1 sequence (Q9UEE5 1-414): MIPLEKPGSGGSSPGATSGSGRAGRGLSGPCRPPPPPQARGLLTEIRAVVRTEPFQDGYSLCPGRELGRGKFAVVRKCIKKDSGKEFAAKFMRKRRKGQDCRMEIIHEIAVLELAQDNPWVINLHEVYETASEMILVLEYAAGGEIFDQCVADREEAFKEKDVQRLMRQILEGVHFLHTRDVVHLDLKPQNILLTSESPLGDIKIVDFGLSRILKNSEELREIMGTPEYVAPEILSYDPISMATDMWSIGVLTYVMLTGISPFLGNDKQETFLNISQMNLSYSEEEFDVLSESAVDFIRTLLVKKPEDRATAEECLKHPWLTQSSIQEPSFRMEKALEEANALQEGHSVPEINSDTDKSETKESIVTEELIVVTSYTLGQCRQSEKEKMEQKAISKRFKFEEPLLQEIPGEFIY
Method: (§1) FIGS. 4A-4B show mechanism of action of F-4N. […] Dose response curves on STK17A and STK17B show half maximal inhibitory concentration (IC50) values of ˜200 nM. […] FIG. 4A. F-4N was sent to Reaction Biology to be tested against their entire wild-type kinase panel. 1 μM F-4N was tested in an ATP competition assay against 420+ kinases. Z-scores were calculated to identify true hits over noise.

Mdr2-/- mice [1] = test: Mdr2-/- mouse model of PSC with established liver fibrosis, i.p. treatment; format: in vivo; details: 10 mg/kg/daily i.p. for 14 days
Method: FIG. 6. Biochemical and histological examination of fibrosis in Mdr2^−/− mice treated with vehicle or F-4N. Mdr2^−/− mice (18-20 weeks old) with established liver fibrosis were treated with F-4N (10 mg/kg/daily i.p. n=10) or vehicle (i.p. n=10) for 14 days, then sacrificed the next day. Liver tissue and serum were collected for analysis. Left panel. […] Right panels.
Hydroxyproline content was measured using a hydroxyproline assay kit (Biovision) according to the manufacturer's instructions with slight modification. The liver tissues were weighed, homogenized in sterile water (10 mg of tissue per 100 μL H2O) and hydrolyzed in 12 M HCl in a pressure-tight, Teflon capped vial at 120° C. for 3 hours followed by filtration through a 45 μm Spin-X Centrifuge Tube filter (Corning). Ten μL of the hydrolyzed samples was dried in a Speed-Vac for 2 hours, followed by incubation with 100 μL of Chloramine T reagent for 5 minutes at room temperature and 100 μL of 4-(dimethylamino)benzaldehyde (DMAB) for 90 minutes at 60° C. The absorbance of oxidized hydroxyproline was determined at 560 nm. Hydroxyproline concentrations were calculated from a standard curve generated using known concentrations of trans-4-hydroxyl-L-proline. The total amount of protein isolated from the weighed tissues was determined by using a protein assay kit (Bio-Rad, absorbance at 595 nm). The amount of collagen was expressed in μg/mg total protein.
The slides were then stained with a solution containing 0.1% picrosirius red (Direct Red 80) and 0.1% fast green (counterstain) in saturated aqueous solution of picric acid, for 60 minutes at room temperature, followed by one wash in distilled water, de-hydration in 3 changes of 100% EtOH, clear in xylene and mount in resinous medium.
Serum alanine aminotransferase (ALT), alkaline phosphatase (ALP) and total bile acids were measured using a commercially available veterinary chemistry analyzer (VetScan 2, Abaxis).
RNA isolation using RNeasy Plus Mini Kit (Qiagen) according to the manufacturer's instructions. Isolated RNA (250 ng) was then used to synthesize cDNA using SuperScript VILO (Invitrogen). Quantitative PCR was performed using FastStart Essential DNA Green Master (Roche) and analyzed using a LightCycler 96 (Roche). Data are expressed as a fold change by ΔΔCt relative to glyceraldehyde-3-phosphate dehydrogenase (GAPDH).

STK17B = target: T2, STK17B (Homo sapiens, UniProt O94768); test: Kinase dose response curve on STK17B; format: biochemical; details: FIG. 4A, read-out: half maximal inhibitory concentration (IC50) on STK17B
T2 construct: purchased Reaction Biology
T2 sequence (O94768 1-372): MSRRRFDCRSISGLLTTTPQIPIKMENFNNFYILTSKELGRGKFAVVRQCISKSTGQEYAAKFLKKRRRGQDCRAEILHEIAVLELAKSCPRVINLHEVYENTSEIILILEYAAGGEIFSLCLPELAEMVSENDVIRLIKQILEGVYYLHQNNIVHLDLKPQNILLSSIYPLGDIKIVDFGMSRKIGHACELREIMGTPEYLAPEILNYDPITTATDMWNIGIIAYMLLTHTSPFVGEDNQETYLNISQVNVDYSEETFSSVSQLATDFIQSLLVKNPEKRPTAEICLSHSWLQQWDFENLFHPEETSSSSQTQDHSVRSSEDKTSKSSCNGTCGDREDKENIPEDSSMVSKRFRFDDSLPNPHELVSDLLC
Method: as §1

[2] = Stability in mouse plasma; format: in vitro ADME
Method: The stability of F-4N in plasma was assessed (FIG. 27). Compounds were incubated with human or mouse plasma. The percent of F-4N recovered was analyzed by LC-MS. Warfarin was used as a control for stable compound, and propantheline was used as a control for an unstable compound. Analysis was performed by Cyprotex (Framingham, MA).

[3] = Microsomal stability, human liver derived microsomes; format: in vitro ADME
Method: The microsomal stability of F-4N was also assessed (FIG. 28). Compounds were incubated with human or mouse liver derived microsomes. The percent of F-4N recovered was analyzed by LC-MS. Verapamil was used as a control for a rapidly degraded compound. Analysis was performed by Cyprotex (Framingham, MA).

Mdr2-/- mice [4] = test: Mdr2-/- mouse model of PSC with established liver fibrosis, oral treatment; format: in vivo; details: 4 weeks
From the text: 20 Mdr2^−/− mice (10 males, 10 females) approximately 7 months old with established liver fibrosis were assigned to receive either F-4N or vehicle ([…]) for 4 weeks. At the end of treatment, mice were sacrificed, and livers were collected to assess liver inflammation and fibrosis.

DRAK1 = target: T3, DRAK1 (Homo sapiens, UniProt Q9UEE5); test: DRAK1 kinase activity assay (radiolabeled ATP, Reaction Biology); format: biochemical; details: FIG. 30
T3 construct: purchased Reaction Biology
T3 sequence (Q9UEE5 1-414): T1 sequence (Q9UEE5 1-414)
Method: DRAK1 kinase activity was also assessed. […] A DRAK1 kinase activity was performed by Reaction Biology. DRAK1 kinase activity was measured and plotted (FIG. 30).

With `O=c1c(O)c(-c2ccc(OCc3ccncc3)cc2)oc2ccccc12` [F—4N] the IC50 (STK17A) was about 200 nM, the “reduction of liver collagen content (hydroxyproline assay) compared to vehicle control” value (Mdr2-/- mice [1]) was about 40% and the “Liver function tests: ALT, ALP and serum bile acid values” (Mdr2-/- mice [1]; compared to vehicle) was “significantly reduced”. For the same molecule, the “RT-PCR of whole liver RNA: Col1a1, Il6, Ccl2, Cdkn1a, Cdkn2a” value (Mdr2-/- mice [1]; compared to vehicle) was “significantly reduced”, the “Picrosirius red staining of liver collagen fibers” value (Mdr2-/- mice [1]; particularly portal-to-portal areas) was “reduction of collagen fibers” and the IC50 (STK17B) was about 200 nM. For the same molecule, the “stability in plasma (percent recovered, LC-MS)” value [2] was “stable”, the “microsomal stability: half-life and clearance rate” value [3] was “in line with many clinically approved orally administered drugs” and the “expression of fibrogenic genes in the liver” value (Mdr2-/- mice [4]; oral delivery) was “reduced expression”. For the same molecule, the “liver fibrosis, especially parenchymal (bridging) fibrosis” value (Mdr2-/- mice [4]; oral delivery) was “Improvement of liver fibrosis”, the “tissue markers of liver inflammation and senescence” value (Mdr2-/- mice [4]; oral delivery) was “Significant reduction” and the liver mass (Mdr2-/- mice [4]; oral treatment) was “reduced”. The DRAK1 kinase activity (DRAK1) was “can inhibit”.
